Measurements taken from patent EP2095819A1, “N-benzyl imidazole derivatives and their use as aldosterone synthase inhibitors” (Maastricht University, priority 2008, dated 2009).

Key:
human CYP11B2 = target: T1, human CYP11B2 (Homo sapiens, UniProt P19099); assay: Inhibitor potency for human CYP11B2 in V79 cells expressing the enzyme (HPLC steroid analysis); assay type: cell-based; details: for Ratio: Ratio = IC50 CYP11B1/ IC50 CYP11B2 (selectivity); for IC50: V79 cells stably (over)expressing human CYP11B2, 1 hour with inhibitor, then 11-deoxycorticosterone 500 nM for three hours, read-out: IC50 11B2
T1 construct: expressed in transfected cells; host or cells: V79 Chinese hamster cells
T1 sequence (P19099 25-503): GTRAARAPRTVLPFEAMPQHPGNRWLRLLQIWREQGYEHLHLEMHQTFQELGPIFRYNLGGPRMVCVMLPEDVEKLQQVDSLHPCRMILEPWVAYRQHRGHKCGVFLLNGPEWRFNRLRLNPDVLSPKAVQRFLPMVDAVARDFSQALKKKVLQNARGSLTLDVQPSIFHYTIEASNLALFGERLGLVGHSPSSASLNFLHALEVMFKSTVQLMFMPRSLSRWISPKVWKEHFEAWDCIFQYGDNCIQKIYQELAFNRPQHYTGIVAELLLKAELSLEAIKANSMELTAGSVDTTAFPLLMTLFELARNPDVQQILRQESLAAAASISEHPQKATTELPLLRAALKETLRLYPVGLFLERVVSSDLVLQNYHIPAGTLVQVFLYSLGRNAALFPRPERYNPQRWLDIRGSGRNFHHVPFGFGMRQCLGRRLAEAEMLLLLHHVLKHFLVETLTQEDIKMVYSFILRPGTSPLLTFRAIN
Procedure: (§1) Inhibitor potencies for human CYP11B1 and CYP11B2 were determined in an in vitro assay using V79 cells in which human CYP11B1 or CYP11B2 are expressed.
The V79 cells stably (over)expressing human CYP11 B2 were developed in the laboratory of Prof. Rita Bernhardt, Institute of Biochemistry, Saarland University, Saarbrücken, Germany : • Denner K, Doehmer J,Bernhardt R. "Cloning of CYP11B1 and CYP11B2 from normal human adrenal and their functional expression in COS-7 and V79 Chinese hamster cells" Endocr Res 1995;21:443-8; • Bottner B, Denner K, Bernhardt R "Conferring aldosterone synthesis to human CYP11B1 by replacing key amino acid residues with CYP11B2 ones", Eur. J. Biochem. 1998; 252: 458-466; • Denner K, Vogel R, Schmalix W, Doehmer J, Bernhardt R.: "Cloning and stable expression of the human mitochondrial cytochrome P45011B1 cDNA in V79 Chinese hamster cells and their application for testing of potential inhibitors." Pharmacogenetics 1995; 5: 89-96; • Denner K, Bernhardt R. "Inhibition studies of steroid conversions mediated by human CYP11B1 and CYP11B2 expressed in cell cultures". In: Oxygen Homeostasis and Its Dynamics. Springer-Verlag, Tokyo, Berlin, Heidelberg, New York 1998, pp 231-236; • Ehmer PB, Bureik M, Bernhardt R, Muller U, Hartmann RW. "Development of a test system for inhibitors of human aldosterone synthase (CYP11B2): screening in fission yeast and evaluation of selectivity in V79 cells." J. Steroid Biochem Mol Biol. 2002; 81: 173-179.
(§2) Cells were cultured under standard conditions in DMEM/FK12 medium (Gibco, Gaitersburg, USA) supplemented with 10% foetal calf serum (Hyclone, Logan, USA), penicillin/streptomycin (100 U/ml and 100 µg/ml, respectively Gibco). Cell culturing and incubation experiments (see below) with the cells were performed at 37°C in a humid environment and 5%CO2 atmosphere.
(§3) Next, cells were incubated for 1 hour in serum free medium with cumulative inhibitor concentrations. […] After these incubation times, medium was collected for steroid analysis by HPLC. To extract the (produced) steroids from the medium, 1 ml aliquots of medium were mixed with 1 ml 1 M sodium-glycine buffer (pH 10.5) containing 500 nM methylprednisolone (Sigma-Aldrich) as internal standard and 5 ml of diethylether (Biosolve, Valkenswaard, the Netherlands). After shaking for 3 minutes, the samples were briefly centrifuged and the organic phase (containing the steroids) transferred into another tube and blown to dryness under a stream of nitrogen. The dried extracts were dissolved in 100 µl of mobile phase to be used for automated HPLC analysis. The HPLC system comprised a MR column (4.6 x 50 mm, particle size 2.5 µm; Shimadzu, Tokyo, Japan) as a stationary phase and a mixture of 680/320/1 (v/v/v) milliQ water, acetonitrile and trifluoro-acetic acid as mobile phase at a flow rate of 1.0 ml/minute. Steroids were detected by UV absorption at 243 nm (Shimadzu, Tokyo, Japan). To quantitate the steroids, peak area ratios versus the internal standard (methylprednisolone) were determined and compared with calibration curves.
(§4) Determination of IC50 values (potencies) was based on at least 5 inhibitor concentrations and was derived from the generic equation for enzyme inhibition at fixed substrate concentration vi = v0/(1 + I/IC50) with vi and v0 being the reaction velocities in the presence or absence of inhibitor respectively, and I being the inhibitor concentration (Cornish-Bowden A, "Analysis of enzyme kinetic data.", Oxford University Press, Oxford, 1995). All analyses were conducted at least in duplicate. […]

human CYP11B1 = target: T2, human CYP11B1 (Homo sapiens, UniProt P15538); assay: Inhibitor potency for human CYP11B1 in V79 cells expressing the enzyme (HPLC steroid analysis); assay type: cell-based; details: V79 cells (over)expressing human CYP11B1; 1 hour with inhibitor, then 11-deoxycorticosterone 500 nM for another hour; read-out: IC50 11B1
T2 construct: The full length cDNA for human CYP11B1 was obtained by PCR from human adrenal cDNA; expressed in transfected cells; host or cells: V79 Chinese hamster cells, stably transfected with pcDNA3.1 (hygromycin resistance)
T2 sequence (P15538 25-503): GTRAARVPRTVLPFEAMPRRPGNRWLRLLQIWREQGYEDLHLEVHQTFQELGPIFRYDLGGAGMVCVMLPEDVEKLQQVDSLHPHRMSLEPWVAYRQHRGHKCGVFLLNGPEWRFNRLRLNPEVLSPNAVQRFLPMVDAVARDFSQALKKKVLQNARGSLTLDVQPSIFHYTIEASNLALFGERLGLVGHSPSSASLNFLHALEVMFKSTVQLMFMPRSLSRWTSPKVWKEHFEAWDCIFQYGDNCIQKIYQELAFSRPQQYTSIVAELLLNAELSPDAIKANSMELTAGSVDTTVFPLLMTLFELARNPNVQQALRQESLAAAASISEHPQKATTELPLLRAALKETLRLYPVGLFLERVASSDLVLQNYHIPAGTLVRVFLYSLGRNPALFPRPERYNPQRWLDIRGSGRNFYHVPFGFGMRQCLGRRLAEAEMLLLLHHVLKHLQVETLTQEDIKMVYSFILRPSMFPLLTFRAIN
Procedure: as §1
The human CYP11B1 (over)expressing V79 cells (stably transfected with a pcDNA3.1 vector, carrying a hygromycin resistance box) were constructed at Organon (Newhouse, UK) in the following manner. The full length cDNA for human CYP11B1 was obtained by PCR from human adrenal cDNA as described by Kawamoto et al ("Cloning of cDNA and genomic DNA for human cytochrome P-45011 beta" FEBS Lett 1990;269:345-9) and cloned into pPCR SCRIPT (Stratagene, La Jolla, USA). After digestion with Xho I and Not I, the obtained cDNA was inserted into a Xho I/Not I digested pcDNA3.1 vector (InVitrogen, Breda, Netherlands), carrying a hygromycin resistance box. Following transfection to the V79 cells, positive cells were selected based on their hygromycin resistance. The presence of the CYP11B1 gene was confirmed by PCR and the presence of 11β-hydroxylase activity (i.e. the ability to produce corticosterone or cortisol from 11-deoxycorticosterone or 11-deoxycortisol respectively). […] In normal (non transfected) V79 cells, no detectable 11β-hydroxylase activity or PCR signals were found.
as §2, §3, §4

Compound | Ratio (human CYP11B2) | IC50 (human CYP11B2) [nM] | IC50 (human CYP11B1) [nM]
OCCCc1cncn1Cc1ccc(F)cc1 [Compound 15, 3-[1-(4-Fluorobenzyl)-1H-imidazol-5-yl]propanol] | 6.9 | 16.8 | 116
COC(=O)CCc1cncn1Cc1ccc(C#N)cc1 [Compound 18, Methyl 3-[1-(4-cyanobenzyl)-1H-imidazol-5-yl]propanoate] | 8.9 | 3.5 | 31.1
COC(=O)CCc1cncn1Cc1ccc(Br)cc1 [Compound 20, Methyl 3-[1-(4-bromobenzyl)-1H-imidazol-5-yl]propanoate] | 14.4 | 4 | 57.4
Cc1cncn1Cc1ccc(C#N)cc1 [Compound 42, 4-[(5-Methyl-1H-imidazol-1-yl)methyl]benzonitrile] | 11.4 | 12.3 | 140
N#Cc1ccc(Cn2cncc2-c2ccccc2)cc1 [Compound 43, 4-[(5-Phenyl-1H-imidazol-1-yl)methyl]benzonitrile] | 15.7 | 1.7 | 27.5
N#Cc1ccc(Cn2cncc2C=O)cc1 [Compound 44, 4-[(5-Formyl-1H-imidazol-1-yl)methyl]benzonitrile] | 7.7 | 61.8 | 478
COC(=O)c1cncn1Cc1ccc(C#N)cc1 [Compound 45, Methyl 1-(4-cyanobenzyl)-1H-imidazole-5-carboxylate] | 6.7 | 7.1 | 47.8
O=[N+]([O-])c1ccc(Cn2cncc2-c2ccccc2)cc1 [Compound 50, 1-(4-Nitrobenzyl)-5-phenyl-1H-imidazole] | 5.9 | 2.3 | 13.7
N#Cc1ccc(Cn2cncc2CO)cc1 [Compound 52, 1-(4-cyanobenzyl)-5-hydroxymethyl-1H-imidazole] | 10 | 28.5 | 285
Cc1ccccc1-c1cncn1Cc1ccc(C#N)cc1 [Compound 57, 4-[(5-(2-Methylphenyl)-1H-imidazol-1-yl)methyl]benzonitrile] | 10.5 | 0.7 | 7.6
N#Cc1ccc(Cn2cncc2-c2cccc(F)c2)cc1 [Compound 58, 4-[(5-(3-Fluorophenyl)-1H-imidazol-1-yl)methyl]benzonitrile] | 5.8 | 5.5 | 31.8
